Measured values as given in PubChem BioAssay AID2060619 (Molecular Pharmacology Branch, DTP, NCI, 2025).
pIC50: −log10 of the molar value.

System: 323965-272-R-J2-PDC complex spheroid viability
Test: Anticancer human tumor 323965-272-R-J2-PDC patient-derived pancreatic carcinoma cell line growth inhibition [CLK]
Details: for pIC50: curve of first compound; for viability, T/C: stronger effect = lower value
Method in brief: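 Patient-derived tumor cells grown as complex spheroids with HUVEC endothelial cells and mesenchymal stem cells, treated with drug combinations. Concentrations descend in half-log steps from near clinical Cmax, or from 10 microM if Cmax unknown.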

[1] = second compound 0.0316 µM, first compound 0.0316 µM
[2] = second compound 0.0316 µM, first compound 0.1 µM
[3] = second compound 0.0316 µM, first compound 0.316 µM
[4] = second compound 0.0316 µM, first compound 1 µM
[5] = second compound 0.0316 µM, first compound 3.16 µM
[6] = second compound 0.0316 µM, first compound 10 µM
[7] = second compound 0.1 µM, first compound 0.0316 µM
[8] = second compound 0.1 µM, first compound 0.1 µM
[9] = second compound 0.1 µM, first compound 0.316 µM
[10] = second compound 0.1 µM, first compound 1 µM
[11] = second compound 0.1 µM, first compound 3.16 µM
[12] = second compound 0.1 µM, first compound 10 µM
[13] = second compound 0.316 µM, first compound 0.0316 µM
[14] = second compound 0.316 µM, first compound 0.1 µM
[15] = second compound 0.316 µM, first compound 0.316 µM
[16] = second compound 0.316 µM, first compound 1 µM
[17] = second compound 0.316 µM, first compound 3.16 µM
[18] = second compound 0.316 µM, first compound 10 µM
[19] = second compound 1 µM, first compound 0.0316 µM
[20] = second compound 1 µM, first compound 0.1 µM
[21] = second compound 1 µM, first compound 0.316 µM
[22] = second compound 1 µM, first compound 1 µM
[23] = second compound 1 µM, first compound 3.16 µM
[24] = second compound 1 µM, first compound 10 µM
[25] = second compound 3.16 µM, first compound 0.0316 µM
[26] = second compound 3.16 µM, first compound 0.1 µM
[27] = second compound 3.16 µM, first compound 0.316 µM
[28] = second compound 3.16 µM, first compound 1 µM
[29] = second compound 3.16 µM, first compound 3.16 µM
[30] = second compound 3.16 µM, first compound 10 µM
[31] = second compound 10 µM, first compound 0.0316 µM
[32] = second compound 10 µM, first compound 0.1 µM
[33] = second compound 10 µM, first compound 0.316 µM
[34] = second compound 10 µM, first compound 1 µM
[35] = second compound 10 µM, first compound 3.16 µM
[36] = second compound 10 µM, first compound 10 µM
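Note: spheroids exposed to agents for seven days before readout.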
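Throughout, for viability, T/C: percent of DMSO vehicle control wells so 100% = untreated growth.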

**Q.** What does the source list for `COc1ccc([C@@H](O)c2cc(-c3ncnc4cc(N5CCOCC5)ccc34)c(F)cc2Cl)nn1` + CN1CCN(c2cc(C(=O)Nc3cc4cc(-c5cnn(C)c5)ccc4cn3)ccn2)CC1?
**A.** pIC50 (second compound 0.0316 µM): 5.11; pIC50 (second compound 0.1 µM): 5.48; pIC50 (second compound 0.316 µM): > 7.50; pIC50 (second compound 1 µM): > 7.50; pIC50 (second compound 3.16 µM): > 7.50; pIC50 (second compound 10 µM): > 7.50; viability, T/C [1]: 94.2%; viability, T/C [2]: 100%; viability, T/C [3]: 84%; viability, T/C [4]: 89.7%; viability, T/C [5]: 68.8%; viability, T/C [6]: 44.5%; viability, T/C [7]: 70.5%; viability, T/C [8]: 80.3%; viability, T/C [9]: 62.9%; viability, T/C [10]: 61.8%; viability, T/C [11]: 51%; viability, T/C [12]: 37.8%; viability, T/C [13]: 21.9%; viability, T/C [14]: 23.9%; viability, T/C [15]: 22.8%; viability, T/C [16]: 21.1%; viability, T/C [17]: 19.1%; viability, T/C [18]: 21.1%; viability, T/C [19]: 4.14%; viability, T/C [20]: 3.13%; viability, T/C [21]: 4.35%; viability, T/C [22]: 2.76%; viability, T/C [23]: 3.07%; viability, T/C [24]: 4.48%; viability, T/C [25]: 4.01%; viability, T/C [26]: 4.31%; viability, T/C [27]: 6.05%; viability, T/C [28]: 4.02%; viability, T/C [29]: 5.21%; viability, T/C [30]: 4.73%; viability, T/C [31]: 4.33%; viability, T/C [32]: 5.55%; viability, T/C [33]: 4.42%; viability, T/C [34]: 5.56%; viability, T/C [35]: 5.95%; viability, T/C [36]: 6.95%

**Q.** What does the source list for `O=C(c1cc(Cc2n[nH]c(=O)c3ccccc23)ccc1F)N1CCN(C(=O)C2CC2)CC1` + CN1CCN(c2cc(C(=O)Nc3cc4cc(-c5cnn(C)c5)ccc4cn3)ccn2)CC1?
**A.** pIC50 (second compound 0.0316 µM): < 5.00; pIC50 (second compound 0.1 µM): < 5.00; pIC50 (second compound 0.316 µM): > 7.50; pIC50 (second compound 1 µM): > 7.50; pIC50 (second compound 3.16 µM): > 7.50; pIC50 (second compound 10 µM): > 7.50; viability, T/C [1]: 91.1%; viability, T/C [2]: 93.4%; viability, T/C [3]: 87.4%; viability, T/C [4]: 102%; viability, T/C [5]: 93.5%; viability, T/C [6]: 80.2%; viability, T/C [7]: 70.6%; viability, T/C [8]: 81.2%; viability, T/C [9]: 68.7%; viability, T/C [10]: 64.8%; viability, T/C [11]: 65.6%; viability, T/C [12]: 56.2%; viability, T/C [13]: 23.2%; viability, T/C [14]: 26.9%; viability, T/C [15]: 22.6%; viability, T/C [16]: 26.6%; viability, T/C [17]: 24.9%; viability, T/C [18]: 26.9%; viability, T/C [19]: 4.07%; viability, T/C [20]: 7.03%; viability, T/C [21]: 3.28%; viability, T/C [22]: 3.68%; viability, T/C [23]: 3.67%; viability, T/C [24]: 3.82%; viability, T/C [25]: 5.15%; viability, T/C [26]: 4.92%; viability, T/C [27]: 4.78%; viability, T/C [28]: 4.57%; viability, T/C [29]: 5.09%; viability, T/C [30]: 7.05%; viability, T/C [31]: 4.14%; viability, T/C [32]: 5.28%; viability, T/C [33]: 5.97%; viability, T/C [34]: 4.83%; viability, T/C [35]: 4.72%; viability, T/C [36]: 6.29%
